From patent publication US20190292167A1, “HETEROAROMATIC COMPOUNDS USEFUL FOR THE TREATMENT OF PROLIFERATIVE DISEASES” (Syros Pharmaceuticals, Inc., priority 2013, published 2019)
Where a name gives a salt, the structure may show the parent alone.

Legend:
[1] = system: MDA-MB231; assay: Inhibition of cell proliferation, CellTiter-Glo, 72 hour; type: cell-based; settings: Homo sapiens, MDA-MB-231, Breast Cancer/Breast cell line
[2] = system: RD-ES; assay: as above; type: cell-based; settings: Ewing's Sarcoma cell line
Procedure: (§1) • Hs863T—DMEM (4 mM L-Glut, 4.5 g/L Glucose, 1 mM pyruvate, 1.5 g/l bicarb)+10% FBS • Hs822T—DMEM (4 mM L-Glut, 4.5 g/L Glucose, 1 mM pyruvate, 1.5 g/l bicarb)+10% FBS • A673—DMEM (4 mM L-Glut, 4.5 g/L Glucose, 1 mM pyruvate, 1.5 g/l bicarb)+10% FBS • SKES-1—McCoy's 5a Medium Modified (modified—1.5 mM L-glut, 2.2 g/L bicarb)+15% FBS • RD-ES—RPMI 1640+15% FBS.

[3] = system: Hs863T; assay: as above; type: cell-based; settings: Ewing's Sarcoma cell line
Procedure: as §1

[4] = system: Hs822T; assay: as above; type: cell-based; settings: Ewing's Sarcoma cell line
Procedure: as §1

[5] = system: SKES-1; assay: as above; type: cell-based; settings: Homo sapiens, SK-ES1, Ewing's Sarcoma cell line, read-out: Inhibition of Proliferation SK-ES
Procedure: as §1

[6] = system: A673; assay: as above; type: cell-based; settings: Homo sapiens, Ewing's Sarcoma cell line
Procedure: as §1

[7] = system: MCF-7; assay: as above; type: cell-based; settings: Homo sapiens, MCF7, Breast Cancer/Breast cell line
[8] = system: RS4-11; assay: as above; type: cell-based; settings: Homo sapiens, Blood cancer cell line
[9] = target: T1, CDK7 (Homo sapiens, UniProt P50613); assay: Adapta kinase assay (Life Technologies) against CDK7, co-factors cyclin H and MNAT1; type: biochemical; settings: read-out: CDK7 Inhibition
T1 construct: purchased Life Technologies (Adapta kinase assay service)
T1 sequence (P50613 whole entry): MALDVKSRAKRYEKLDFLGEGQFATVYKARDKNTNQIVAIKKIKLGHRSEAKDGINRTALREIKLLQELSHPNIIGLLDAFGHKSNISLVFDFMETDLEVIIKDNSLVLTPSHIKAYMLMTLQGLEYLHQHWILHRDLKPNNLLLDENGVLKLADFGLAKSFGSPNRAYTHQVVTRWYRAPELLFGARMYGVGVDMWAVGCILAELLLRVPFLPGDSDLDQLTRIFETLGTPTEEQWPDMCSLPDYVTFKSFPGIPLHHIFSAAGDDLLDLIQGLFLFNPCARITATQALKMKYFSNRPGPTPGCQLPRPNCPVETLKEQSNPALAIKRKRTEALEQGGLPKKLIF
T1 sequence (P51946 whole entry partner): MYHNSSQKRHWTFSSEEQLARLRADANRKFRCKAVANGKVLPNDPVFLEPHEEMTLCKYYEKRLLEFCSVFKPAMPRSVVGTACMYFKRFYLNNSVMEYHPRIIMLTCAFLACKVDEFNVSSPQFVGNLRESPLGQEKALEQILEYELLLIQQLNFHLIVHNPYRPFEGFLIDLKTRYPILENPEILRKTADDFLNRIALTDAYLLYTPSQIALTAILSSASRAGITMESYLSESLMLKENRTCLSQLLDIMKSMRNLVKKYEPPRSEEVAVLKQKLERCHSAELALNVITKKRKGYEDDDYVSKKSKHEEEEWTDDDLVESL
T1 sequence (P51948 whole entry partner): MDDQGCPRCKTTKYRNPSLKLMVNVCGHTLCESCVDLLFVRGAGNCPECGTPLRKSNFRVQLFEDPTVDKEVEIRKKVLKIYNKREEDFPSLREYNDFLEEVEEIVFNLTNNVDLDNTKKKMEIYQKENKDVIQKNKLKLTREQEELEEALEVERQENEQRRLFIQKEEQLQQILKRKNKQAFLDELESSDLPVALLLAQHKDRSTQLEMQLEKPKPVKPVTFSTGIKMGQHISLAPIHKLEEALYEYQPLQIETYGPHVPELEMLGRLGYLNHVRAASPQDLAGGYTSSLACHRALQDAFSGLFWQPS

[10] = system: hTERT-HME1; assay: Inhibition of cell proliferation, CellTiter-Glo, 72 hour; type: cell-based; settings: Breast Cancer/Breast cell line
[11] = system: THP-1; assay: as above; type: cell-based; settings: Homo sapiens, Blood cancer cell line
[12] = system: MNNG-Hos Cl#5; assay: as above; type: cell-based; settings: Osteosarcoma cell line
[13] = system: 143B; assay: as above; type: cell-based; settings: Homo sapiens, Osteosarcoma cell line
[14] = system: MV4-11; assay: as above; type: cell-based; settings: Homo sapiens, Blood cancer cell line
[15] = system: SKBR-3; assay: as above; type: cell-based; settings: Homo sapiens, SK-BR-3, Breast Cancer/Breast cell line, read-out: Inhibition of Proliferation SKBR3
[16] = system: MCF-10A; assay: as above; type: cell-based; settings: Homo sapiens, Breast Cancer/Breast cell line, read-out: Inhibition of Proliferation MCF10A
[17] = system: HL-60; assay: as above; type: cell-based; settings: Homo sapiens, Blood cancer cell line, read-out: Inhibition of Proliferation HL60
[18] = system: Jurkat; assay: as above; type: cell-based; settings: Homo sapiens, Jurkat, 72 h, Blood cancer cell line; 72 hour; read-out: Inhibition of Proliferation of Jurkat Cells
Procedure: The following cancer cell lines were tested with the media conditions indicated: […]

[19] = system: SAOS; assay: as above; type: cell-based; settings: Osteosarcoma cell line
[20] = system: T47D; assay: as above; type: cell-based; settings: Homo sapiens, Breast Cancer/Breast cell line

Row | Compound | IC50 [1] [nM] | IC50 [2] [nM] | IC50 [3] [nM] | IC50 [4] [nM] | IC50 [5] [nM] | IC50 [6] [nM] | IC50 [7] [nM] | IC50 [8] [nM] | IC50 [9] [nM] | IC50 [10] [nM] | IC50 [11] [nM] | IC50 [12] [nM] | IC50 [13] [nM] | IC50 [14] [nM] | IC50 [15] [nM] | IC50 [16] [nM] | IC50 [17] [nM] | IC50 [18] [nM] | IC50 [19] [nM] | IC50 [20] [nM]
1 | CN(C)C/C=C/C(=O)Nc1ccc(C(=O)N2CCC(Nc3ncc(Cl)c(-c4c[nH]c5ccccc45)n3)CC2)cc1 [Compound 100, (E)-N-(4-(4-(5-chloro-4-(1H-indol-3-yl)pyrimidin-2-ylamino)piperidine-1-carbonyl)phenyl)-4-(dimethylamino)but-2-enamide] | < 500 | < 500 | > 5000 | 500 to 5000 | < 500 | < 500 | < 500 | < 500 | < 100 | < 500 | < 500 | 500 to 5000 | > 5000 | < 500 | > 5000 | < 500 | < 500 | < 500 | < 500 | > 5000
2 | CN(C)C/C=C/C(=O)Nc1ccc(C(=O)N2CC[C@H](Nc3ncc(Cl)c(-c4c[nH]c5ccccc45)n3)C2)cc1 [Compound 101, (E)-N-(4-((S)-3-(5-chloro-4-(1H-indol-3-yl)pyrimidin-2-ylamino)pyrrolidine-1-carbonyl)phenyl)-4-(dimethylamino)but-2-enamide] | > 5000 | > 5000 | > 5000 | > 5000 | 500 to 5000 | 500 to 5000 | > 5000 | 500 to 5000 | 100 to 1000 | 500 to 5000 | > 5000 | > 5000 | > 5000 | < 500 | > 5000 | 500 to 5000 | > 5000 | 500 to 5000 | > 5000 | > 5000
3 | CN(C)C/C=C/C(=O)Nc1ccc(C(=O)N2CCC(Nc3ncc(C#N)c(-c4c[nH]c5ccccc45)n3)CC2)cc1 [Compound 102, (E)-N-(4-(4-(5-cyano-4-(1H-indol-3-yl)pyrimidin-2-ylamino)piperidine-1-carbonyl)phenyl)-4-(dimethylamino)but-2-enamide] | < 500 | < 500 | > 5000 | 500 to 5000 | < 500 | < 500 | < 500 | < 500 | < 100 | < 500 | < 500 | > 5000 | > 5000 | < 500 | > 5000 | < 500 | < 500 | < 500 | < 500 | > 5000
4 | CN(C)C/C=C/C(=O)Nc1ccc(C(=O)N2CC[C@@H](Nc3ncc(C#N)c(-c4c[nH]c5ccccc45)n3)C2)cc1 [Compound 103, (E)-N-(4-((R)-3-(5-cyano-4-(1H-indol-3-yl)pyrimidin-2-ylamino)pyrrolidine-1-carbonyl)phenyl)-4-(dimethylamino)but-2-enamide] | < 500 | < 500 | > 5000 | > 5000 | < 500 | < 500 | > 5000 | < 500 | < 100 | < 500 | < 500 | 500 to 5000 | > 5000 | < 500 | > 5000 | < 500 | < 500 | < 500 | < 500 | > 5000
5 | CN(C)C/C=C/C(=O)Nc1ccc(C(=O)N2CC[C@@H](Nc3ncc(Cl)c(-c4c[nH]c5ccccc45)n3)C2)cc1 [Compound 104, (E)-N-(4-((R)-3-(5-chloro-4-(1H-indol-3-yl)pyrimidin-2-ylamino)pyrrolidine-1-carbonyl)phenyl)-4-(dimethylamino)but-2-enamide.TFA] | < 500 | < 500 | > 5000 | 500 to 5000 | < 500 | < 500 | 500 to 5000 | < 500 | < 100 | < 500 | < 500 | > 5000 | > 5000 | < 500 | > 5000 | < 500 | < 500 | < 500 | < 500 | > 5000
6 | CN1CC[C@H](c2c(O)cc(O)c3c(=O)cc(-c4ccccc4Cl)oc23)[C@H](O)C1 [Flavopiridol, flavopiridol, reference compound] | < 500 | < 500 | > 5000 | > 5000 | < 500 | < 500 | 500 to 5000 | < 500 | – | < 500 | < 500 | 500 to 5000 | 500 to 5000 | < 500 | < 500 | < 500 | < 500 | – | < 500 | > 5000
7 | CC(C)[C@]12O[C@H]1[C@@H]1O[C@]13[C@]1(O[C@H]1C[C@H]1C4=C(CC[C@@]13C)C(=O)OC4)[C@@H]2O [Triptolide, triptolide, reference compound] | < 500 | < 500 | > 5000 | 500 to 5000 | < 500 | < 500 | < 500 | < 500 | – | < 500 | < 500 | < 500 | < 500 | < 500 | < 500 | < 500 | < 500 | – | < 500 | > 5000
